PMC8096265, “A functional LSD1 coregulator screen reveals a novel transcriptional regulatory cascade connecting R-loop homeostasis with epigenetic regulation” (Nucleic Acids Research, 2021)

Assays:
[1] = test system: RNA:DNA hybrid structures (R-loops) in NIH/3T3 cells; assay: DRIP-qPCR with S9.6 antibody, R-loops; format: cell-based, murine; conditions: relative to DMSO, NIH/3T3, n = 3
Procedure: Based on a detailed assessment of various DRIP protocols ([53]), DRIP was performed as described, with slight adaptations to workflow #19 ([53]). In brief, NIH/3T3 cells were harvested, washed once with 1X PBS and cross-linked in 1% formaldehyde/PBS for 10 min at room temperature. Crosslinking was quenched with 500 mM glycine for 5 min at room temperature. Cells were lysed in 300 μl of ChIP lysis buffer (50mM HEPES–KOH at pH 7.5, 140 mM NaCl, 1 mM EDTA at pH 8, 1% Triton X-100, 0.1% sodium-deoxycholate, 1% SDS) per 2 million cells for 30 min on ice and homogenized with a syringe every 10 min. Chromatin was fragmented by sonication using an EpiShear Probe Sonicator (Active Motif) for 2 × 12 cycles (20 s pulse, 30 s pause, 40% amplitude). The fragmented chromatin was supplemented with 300 mM NaCl and 50 μg of RNase A in 450 μl TE buffer (10 mM Tris–HCl pH 8, 10 mM EDTA pH 8) and incubated at 37°C for 1 h. The cross-linked D. melanogaster mononucleosomes were treated in parallel to obtain DNA for spike-in controls. To remove proteins and reverse the cross-links, the samples were treated with 15 μl of Proteinase K (20 mg/ml; Thermo Fisher Scientific) at 65°C for 16 h. […] The pellet was resuspended in 5 mM Tris–HCl, pH 8.5 and concentration was determined by NanoDrop. […]

[2] = test system: rTetR-LSD1 at synP-mCherry reporter in NIH/3T3 cells; assay: Flow-cytometric synP-mCherry reporter silencing by rTetR-LSD1; format: cell-based, murine; conditions: n = 3; for effect of inhibitor on rTetR-LSD1 activity at synP (mCherry silencing): 10 μM GSK-LSD1 or 400 nM TSA, started in parallel with DOX (1 μg/ml), vs DMSO
Source text: The fluorescent reporter expressing mCherry from a synthetic promoter (synP), consisting of six tetO binding sites upstream of an EF1a promoter, was cloned into pMSCV vector, on which expression of mCherry was driven by the synP promoter element and coupled to Blasticidin resistance via a P2A (pMSCV-tetO-EF1a-mCherry-2A-Blasti). The rTetR-LSD1 fusion construct was cloned into a pRRL backbone by standard cloning methods. The LSD1 construct was kindly provided by Tim Somervaille. Expression was driven from an SFFV promoter and coupled to Hygromycin resistance via a P2A sequence (pRRL-rTetR-LSD1-P2A-Hygro). shRNA guides were cloned into the SGEN vector ([49]).
NIH/3T3, Lenti-X 293T and Platinum-E retroviral packaging cell lines were cultivated in DMEM high glucose media (Sigma-Aldrich) supplemented with 10% FBS, 20 mM glutamate, 10 mM sodium pyruvate, 10 mM HEPES (pH 7.3), 100 U/ml penicillin and […] in an incubator providing 37°C and 5% CO2. For retroviral packaging of pMSCV vectors, 20 μg of plasmid were precipitated for 20 min in HBS buffer (140 mM NaCl, 25 mM HEPES, 0.75 mM Na2HPO4, pH 7.0) together with 125 mM CaCl2 and 10 μg GagPol helper plasmid. The mix was added to a 10 cm dish with Platinum-E cells growing at 75–85% confluence in supplemented DMEM. After 16 and 24 h, the media was replaced with fresh DMEM. Supernatant containing the virus was gathered 40–50 h after transfection, filtered through a 0.45 μm filter and added to the target cells at 50–70% confluence. Antibiotic selection for pMSCV-tetO-EF1a-mCherry-2A-Blasti with 10 μg/ml Blasticidin was started 2 days after transduction and kept up for 7 days. For […] packaging of pRRL-vectors, plasmids were mixed with helper plasmids pCMVR8.74 (pCMVR8.74 was a gift from Didier Trono, Addgene #22036) and pCAG-Eco (pCAG-Eco was a gift from Arthur Nienhuis & Patrick Salmon, Addgene #35617) and 3× (w/w) excess of polyethyleneimine 25K in serum free DMEM. […] Expression of GFP and mCherry was analysed every 1–3 days using a MACSQuant Vyb flow cytometer.

EZH2 = assay: Global H3K27me3 signal after EZH2 inhibition; format: cell-based; conditions: EZH2-specific inhibitor; Supplementary Figure S6C
[3] = test system: rTetR-LSD1 silencing of synP-mCherry in NIH/3T3 cells; assay: ChECS pooled shRNA screen, primary sequencing data; format: cell-based, murine; conditions: 14 days DOX; for sequencing reads neg2 / sequencing reads neg3 / sequencing reads neg4 / sequencing reads neg5: mCherry-negative sorted population; for sequencing reads neg2 / sequencing reads pos2: replicate 2; for sequencing reads neg3 / sequencing reads pos3: replicate 3; for sequencing reads neg4 / sequencing reads pos4: replicate 4; for sequencing reads neg5 / sequencing reads pos5: replicate 5; for sequencing reads pos1 / sequencing reads pos2 / sequencing reads pos3 / sequencing reads pos4 / sequencing reads pos5: mCherry-positive sorted population; for sequencing reads pos1: replicate 1
Source text: After spiking in control shRNAs at equimolar amounts, the shRNA-mirE library (5451 shRNAs and 8 control shRNAs) targeting 1010 chromatin-associated murine genes was transduced into NIH/3T3 cells expressing the synP-mCherry reporter and rTetR-LSD1. To ensure library representation, a total of 30 million cells were infected with 10% transduction efficiency using conditions that predominantly lead to a single retroviral integration and represent each shRNA in a calculated number of >500 cells. Cells were split into replicates and selected with 2.5 mg/ml Neomycin for 7 days before starting treatment with 1 μg/ml doxycycline. Throughout selection >3 × 10^6 cells per replicate were maintained at each passage to preserve library representation. After 14 days of DOX treatment, cells were sorted into mCherry-positive (top 6–8%, minimum of 5 × 10^5 cells) and mCherry-negative (lowest 75–80%, minimum of 6 × 10^6 cells, see Supplementary Figure S2) populations using a FACS Aria III. Genomic DNA for both populations and 5 replicates was isolated with phenol-extraction using PhaseLock tubes, followed by ethanol precipitation. For each sample, DNA from at least 10^6 cells was used as template in multiple parallel 50-μl PCR reactions, each containing 1 μg template, 1× AmpliTaq Gold buffer, 0.2 mM of each dNTP, 2 mM MgCl2, 0.3 μM of each primer and 1.25 U AmpliTaq Gold Polymerase (Life Technologies). In a first round of PCRs, random barcodes and sample barcodes were added to the shRNA sequences using the following cycling parameters: 95°C for 10 min; 28 cycles of (95°C for 30 s, 54°C for 45 s and 72°C for 60 s); 72°C for 7 min and primers MM2P51_for and MM2P71_rev (Supplementary Table S3). PCR products were combined for each sample, purified from a 1% agarose gel and 20 ng per sample were transferred to a second round of PCR, using similar cycling parameters as for PCR1, but with only 10 ng template per reaction, 6 cycles of amplification and primers MM2P52_for and MM2P72_rev_N708 (Supplementary Table S3). In the second PCR, standard Illumina P7 adaptors and the Illumina N708 index were added to the sequences (total product length = 428 bp). All primers used for the library preparation are listed in […]. The final libraries were cleaned up from a 1% agarose gel, pooled and analysed on an Illumina HiSeq 3000 deep sequencer (150 bp read length including the 22 nucleotides of the guide strand), using standard Illumina primers. Sequence processing was performed using a public Galaxy server (www.usegalaxy.eu). All primary screen data are provided in Supplementary Data Table S1. For each shRNA, the number of matching reads was normalized to the total number of library-specific reads per lane and imported into Microsoft Excel for further analysis. Completely depleted shRNAs (0 reads at T0) obtained a fold depletion value of 1 × 10^−3. The average enrichment score for each individual shRNA was calculated by dividing the geometric mean of the normalized reads of the mCherry+ population by the respective normalized reads mCherry– populations (mCherry+/mCherry–) across five replicates. The gene score was derived by summarizing the average enrichment score of all shRNAs per gene. P-values are based on a Poisson distribution of each shRNA in each individual replicate followed by the combination of all P-values across all replicates using Fisher′s method (cumulative χ^2). χ^2 is a chi-squared distribution with 2k degrees of freedom, where k is the number of tests being combined. This fact was used to determine the P-value for χ^2 followed by a Bonferroni correction for multiple comparison to obtain a P-value for each investigated gene in the library.

Molecule | effect of inhibitor on rTetR-LSD1 activity at synP (mCherry silencing) [2] | sequencing reads neg2 [3] | sequencing reads neg3 [3] | sequencing reads neg4 [3] | sequencing reads neg5 [3] | sequencing reads pos1 [3] | sequencing reads pos2 [3] | sequencing reads pos3 [3] | sequencing reads pos4 [3] | sequencing reads pos5 [3] | further results
CCCc1cc(C)[nH]c(=O)c1CNC(=O)c1cc(-c2ccnc(N3CCN(C)CC3)c2)cc2c1cnn2C(C)C [GSK343] |  |  |  |  |  |  |  |  |  |  | R-loop occupancy after GSK343 treatment ([1]; 5 μM GSK343, 3 days, synP element and representative endogenous loci): increased R-loop occupancy; LSD1 silencing capacity at the synP element after GSK343 treatment ([2]; 5 μM GSK343 vs DMSO during rTetR-LSD1 recruitment via DOX, time course): diminished LSD1 silencing capacity at the synP element; H3K27me3 signal after GSK343 treatment (EZH2): global reduction of H3K27me3 signal
c1ccc([C@@H]2C[C@H]2NC2CCNCC2)cc1 [GSK-LSD1] | the activity of rTetR-LSD1 at the synP element is dependent on the catalytic activity of LSD1 and HDACs |  |  |  |  |  |  |  |  |  | R-loops after GSK-LSD1 treatment ([1]; 50 μM GSK-LSD1, 3 days, synP element and representative endogenous regions): substantial increase in R-loops
CC(/C=C/C(=O)NO)=C\[C@@H](C)C(=O)c1ccc(N(C)C)cc1 [Trichostatin A (TSA), Trichostatin A] | the activity of rTetR-LSD1 at the synP element is dependent on the catalytic activity of LSD1 and HDACs |  |  |  |  |  |  |  |  |  | 
Homez.5313: library shRNA, guide TAAAACAGTAGTTCCTAGCCTT |  | 0.001 | 22 | 0 | 4 | 130 | 19 | 22 | 4 | 48 | 
Kdm4b.2934: library shRNA, guide TTCTTGGTGATGACGATCTGGC |  | 0.001 | 0 | 0 | 14 | 14 | 426 | 0 | 1 | 159 | 
